Reference: paper PMC5578373, “Inhibitory Kappa B Kinase α (IKKα) Inhibitors That Recapitulate Their Selectivity in Cells against Isoform-Related Biomarkers” (Journal of Medicinal Chemistry, 2017)
Read-outs that look alike come from different tables or passages of the source.

Key:
ZAP-70(h) = target: T1, ZAP-70(h) (Homo sapiens, UniProt P43403); experiment: Millipore Kinase Profiler, single concentration; format: biochemical; conditions: duplicate assay points, read-out: % residual activity
T1 construct: purchased Millipore KinaseProfiler
Excerpt: (§1) Kinase profiling of compound 48 was outsourced to Millipore, specifically the Kinase Profiler Customer Service for single concentration studies using duplicate assay points.

CDK2/cyclinA(h) = target: T2, CDK2/cyclinA(h) (Homo sapiens, UniProt P24941); experiment: Millipore Kinase Profiler, single concentration; format: biochemical; conditions: duplicate assay points, read-out: % residual activity
T2 construct: purchased Millipore KinaseProfiler
Excerpt: as §1

Rsk1(h) = target: T3, Rsk1(h) (Homo sapiens, UniProt Q15418); experiment: Millipore Kinase Profiler, single concentration; format: biochemical; conditions: duplicate assay points, read-out: % residual activity
T3 construct: purchased Millipore KinaseProfiler
Excerpt: as §1

PKCμ(h) = target: T4, PKCμ(h) (Homo sapiens, UniProt Q15139); experiment: Millipore Kinase Profiler, single concentration; format: biochemical; conditions: duplicate assay points, read-out: % residual activity
T4 construct: purchased Millipore KinaseProfiler
Excerpt: as §1

Abl(h) = target: T5, Abl(h) (Homo sapiens, UniProt P00519); experiment: Millipore Kinase Profiler, single concentration; format: biochemical; conditions: duplicate assay points, read-out: % residual activity
T5 construct: purchased Millipore KinaseProfiler
Excerpt: as §1

CHK1(h) = target: T6, CHK1(h) (Homo sapiens, UniProt O14757); experiment: Millipore Kinase Profiler, single concentration; format: biochemical; conditions: duplicate assay points, read-out: % residual activity
T6 construct: purchased Millipore KinaseProfiler
Excerpt: as §1

MST2(h) = target: T7, MST2(h) (Homo sapiens, UniProt Q13188); experiment: Millipore Kinase Profiler, single concentration; format: biochemical; conditions: duplicate assay points, read-out: % residual activity
T7 construct: purchased Millipore KinaseProfiler
Excerpt: as §1

TrkB(h) = target: T8, TrkB(h) (Homo sapiens, UniProt Q16620); experiment: Millipore Kinase Profiler, single concentration; format: biochemical; conditions: duplicate assay points, read-out: % residual activity
T8 construct: purchased Millipore KinaseProfiler
Excerpt: as §1

PKCα(h) = target: T9, PKCα(h) (Homo sapiens, UniProt P17252); experiment: Millipore Kinase Profiler, single concentration; format: biochemical; conditions: duplicate assay points, read-out: % residual activity
T9 construct: purchased Millipore KinaseProfiler
Excerpt: as §1

CaMKIV(h) = target: T10, CaMKIV(h) (Homo sapiens, UniProt Q16566); experiment: Millipore Kinase Profiler, single concentration; format: biochemical; conditions: duplicate assay points, read-out: % residual activity
T10 construct: purchased Millipore KinaseProfiler
Excerpt: as §1

TBK1(h) = target: T11, TBK1(h) (Homo sapiens, UniProt Q9UHD2); experiment: Millipore Kinase Profiler, single concentration; format: biochemical; conditions: duplicate assay points, read-out: % residual activity
T11 construct: purchased Millipore KinaseProfiler
Excerpt: as §1

PRK2(h) = target: T12, PRK2(h) (Homo sapiens, UniProt Q16513); experiment: Millipore Kinase Profiler, single concentration; format: biochemical; conditions: duplicate assay points, read-out: % residual activity
T12 construct: purchased Millipore KinaseProfiler
Excerpt: as §1

[1] = system: IKKα-regulated NF-κB transcriptional activation in IKKβ−/− MEFs; experiment: IL-1β-stimulated NF-κB-luciferase transcriptional activity in IKKβ knockout MEFs; format: cell-based, mouse; conditions: maximal concentrations of 50–100 μM
Experimental: To provide further evidence for cellular activity, mouse embryonic fibroblasts lacking the IKKβ kinase subunit were utilized to investigate the potency of both compounds against agonist-stimulated IKKα-regulated NF-κB transcriptional activation. Cells were infected with an adenovirus encoding an NF-κB-luciferase promoter gene. NF-κB transcriptional activity driven by IKKα was stimulated specifically using IL-1β,[41] and the ability of the compounds to inhibit this response was assessed. […] As IKKα plays a lesser role in the canonical NF-κB cascade,[42] particularly the rapid and transient stimulated degradation of IκBα, selective IKKα inhibitors should not affect TNF-α induced IκBα degradation and p65 phosphorylation.
(§2) U2OS cells were cultured with McCoy’s 5A modified medium and MEF were cultured with DEME medium containing 10% (v/v) FCS and medium was changed every 2 d thereafter until cells became confluent. Cells were incubated at 37 °C in humidified air with 5% CO2 and rendered quiescent by serum deprivation for 24 h prior to stimulation in serum-free medium.
An adenoviral vector encoding NFκB-luciferase (Adv.NFκB-Luc) was purchased from Vector Biolabs (University of Pennsylvania, Philadelphia, US). Large-scale production of high titer recombinant adenovirus was performed by routine methods.[47] IKKβ knockout mouse embryonic fibroblasts (MEFs; kindly provided by Prof. I. Verma, UCSD, USA) were counted when approximately 60–70% confluent in T75 cm^2 flasks and infected with adenovirus up to 300 pfu/cell^–1 for 24 h in 10% DMEM. Cells were then lifted from the flasks and plated into 96-well clear bottom, black luciferase plates and allowed to settle for 24 h before serum starved overnight. Cells were then stimulated with the appropriate agonists for the indicated times and reactions terminated by addition of lysis buffer containing 0.2 mM luciferin substrate. Relative light units (RLU) were measured using a Trilux microbeta counter (luminometer).

[2] = system: IKKα-driven p100 phosphorylation in U2OS cells; experiment: FCS-stimulated p100 phosphorylation (Ser866/870) in U2OS cells, Western blot; format: cell-based, human; conditions: 1 h pretreatment, FCS (10%) for 4 h, blots quantified, read-out: IC50 for inhibition of p100 phosphorylation
Experimental: Two IKKβ-dependent readouts were selected to assess selectivity over IKKβ. First, TNFα stimulates IκBα degradation through activation of IKKβ and if IKKβ is inhibited, then a band corresponding to the IκBα protein should be evident by Western analysis. Second, IKKβ phosphorylates p65 on Ser536, which can also be assessed by Western blot analysis. Only at the highest concentration (100 μM) of 48 was IκBα degradation and p65 (Ser536) phosphorylation inhibited (Figure 9b). Even at this high concentration, these effects were not apparent following pretreatment with 47 (Figure 10b).
(§3) Figure 9 Effect of compound 48 on (a) FCS-stimulated noncanonical and (b) TNF-α-induced canonical NF-kB activation in U2OS cells. Cells were pretreated with 48 1 h prior to stimulation with FCS (10%) for 4 h or TNF-α (10 ng/mL) for 30 min. Whole cell lysate were prepared, separated by SDS-PAGE, and assessed for (a) inhibition of p100 phosphorylation (Ser866/870) and (b) IkB-α and p-p65 (Ser536) status. […] The results are representative of three independent experiments.
as §3, with “10” for “9”, “47” for “48”
as §2
Whole cell lysates were prepared from U2OS and status of IκBα, p65, p-p65 (Ser536), and p-p100 (Ser 866/870) assessed by Western blotting as described in Mackenzie et al. (2007).[46]

T6 sequence (O14757 whole entry): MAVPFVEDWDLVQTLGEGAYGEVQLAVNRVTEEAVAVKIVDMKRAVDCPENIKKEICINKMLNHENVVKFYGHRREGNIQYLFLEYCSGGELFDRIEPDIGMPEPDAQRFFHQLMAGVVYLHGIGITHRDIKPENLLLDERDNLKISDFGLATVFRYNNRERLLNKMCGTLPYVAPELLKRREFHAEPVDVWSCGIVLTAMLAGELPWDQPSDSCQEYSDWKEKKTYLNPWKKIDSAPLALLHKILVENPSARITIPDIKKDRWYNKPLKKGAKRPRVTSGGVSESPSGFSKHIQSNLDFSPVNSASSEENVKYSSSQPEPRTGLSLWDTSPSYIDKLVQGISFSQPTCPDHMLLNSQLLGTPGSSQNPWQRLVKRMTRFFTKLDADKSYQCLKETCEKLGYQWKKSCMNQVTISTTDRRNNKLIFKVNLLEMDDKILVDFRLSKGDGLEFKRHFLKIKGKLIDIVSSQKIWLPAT
T3 sequence (Q15418 whole entry): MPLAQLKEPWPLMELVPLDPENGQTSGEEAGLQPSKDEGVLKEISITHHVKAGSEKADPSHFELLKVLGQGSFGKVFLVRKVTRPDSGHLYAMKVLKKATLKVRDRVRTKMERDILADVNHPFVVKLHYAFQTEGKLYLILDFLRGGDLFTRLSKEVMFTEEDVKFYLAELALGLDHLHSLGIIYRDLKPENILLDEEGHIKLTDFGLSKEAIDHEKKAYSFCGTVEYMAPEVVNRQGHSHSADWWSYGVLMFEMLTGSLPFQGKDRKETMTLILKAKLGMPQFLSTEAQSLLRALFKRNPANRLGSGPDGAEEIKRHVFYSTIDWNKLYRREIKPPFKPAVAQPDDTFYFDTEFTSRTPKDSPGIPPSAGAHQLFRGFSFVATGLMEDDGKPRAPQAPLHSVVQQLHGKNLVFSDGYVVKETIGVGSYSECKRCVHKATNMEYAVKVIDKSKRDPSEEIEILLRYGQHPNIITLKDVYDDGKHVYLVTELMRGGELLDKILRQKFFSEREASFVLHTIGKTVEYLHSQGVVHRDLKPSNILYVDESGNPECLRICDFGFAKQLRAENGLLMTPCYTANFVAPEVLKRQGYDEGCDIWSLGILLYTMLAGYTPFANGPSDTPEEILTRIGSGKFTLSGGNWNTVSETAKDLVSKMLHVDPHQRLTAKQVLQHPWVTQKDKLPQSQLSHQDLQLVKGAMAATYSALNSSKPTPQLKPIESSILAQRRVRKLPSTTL
T8 sequence (Q16620 32-822): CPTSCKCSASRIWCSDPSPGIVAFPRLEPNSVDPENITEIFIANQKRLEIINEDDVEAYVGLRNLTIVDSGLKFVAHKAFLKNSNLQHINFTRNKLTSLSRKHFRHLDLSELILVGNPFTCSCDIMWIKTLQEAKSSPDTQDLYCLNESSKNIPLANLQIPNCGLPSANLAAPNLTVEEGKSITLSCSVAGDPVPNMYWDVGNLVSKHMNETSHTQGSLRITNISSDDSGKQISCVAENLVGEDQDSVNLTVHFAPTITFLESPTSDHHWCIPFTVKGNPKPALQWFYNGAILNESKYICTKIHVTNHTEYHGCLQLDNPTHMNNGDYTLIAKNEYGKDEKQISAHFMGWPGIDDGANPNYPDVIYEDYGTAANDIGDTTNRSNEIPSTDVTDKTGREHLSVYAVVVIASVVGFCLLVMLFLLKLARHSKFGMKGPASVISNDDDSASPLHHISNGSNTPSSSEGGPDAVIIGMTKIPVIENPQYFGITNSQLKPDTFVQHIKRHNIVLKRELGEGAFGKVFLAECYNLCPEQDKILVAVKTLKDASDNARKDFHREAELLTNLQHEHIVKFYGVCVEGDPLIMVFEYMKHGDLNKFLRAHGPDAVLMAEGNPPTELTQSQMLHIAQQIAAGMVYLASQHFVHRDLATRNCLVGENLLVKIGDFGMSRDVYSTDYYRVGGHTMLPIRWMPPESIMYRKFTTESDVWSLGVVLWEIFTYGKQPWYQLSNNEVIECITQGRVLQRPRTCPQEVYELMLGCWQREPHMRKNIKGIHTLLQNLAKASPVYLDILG
T11 sequence (Q9UHD2 whole entry): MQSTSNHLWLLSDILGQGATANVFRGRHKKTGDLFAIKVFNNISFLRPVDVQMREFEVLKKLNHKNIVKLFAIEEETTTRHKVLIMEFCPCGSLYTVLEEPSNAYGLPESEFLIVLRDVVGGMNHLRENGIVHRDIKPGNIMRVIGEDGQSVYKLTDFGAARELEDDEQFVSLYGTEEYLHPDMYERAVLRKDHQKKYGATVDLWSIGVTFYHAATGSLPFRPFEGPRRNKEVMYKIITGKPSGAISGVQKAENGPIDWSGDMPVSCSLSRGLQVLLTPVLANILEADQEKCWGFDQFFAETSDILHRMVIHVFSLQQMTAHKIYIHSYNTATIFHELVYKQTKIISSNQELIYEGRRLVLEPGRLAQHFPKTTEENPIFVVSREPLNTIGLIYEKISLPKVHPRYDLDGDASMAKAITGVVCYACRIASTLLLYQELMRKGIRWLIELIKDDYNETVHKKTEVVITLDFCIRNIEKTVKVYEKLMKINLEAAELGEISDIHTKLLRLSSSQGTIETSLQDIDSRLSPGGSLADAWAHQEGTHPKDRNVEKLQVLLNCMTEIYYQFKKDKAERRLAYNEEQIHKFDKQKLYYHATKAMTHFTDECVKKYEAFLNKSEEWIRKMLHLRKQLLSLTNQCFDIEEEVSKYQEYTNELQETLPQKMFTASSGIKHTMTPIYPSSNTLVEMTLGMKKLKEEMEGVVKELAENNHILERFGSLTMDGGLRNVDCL
T5 sequence (P00519 whole entry): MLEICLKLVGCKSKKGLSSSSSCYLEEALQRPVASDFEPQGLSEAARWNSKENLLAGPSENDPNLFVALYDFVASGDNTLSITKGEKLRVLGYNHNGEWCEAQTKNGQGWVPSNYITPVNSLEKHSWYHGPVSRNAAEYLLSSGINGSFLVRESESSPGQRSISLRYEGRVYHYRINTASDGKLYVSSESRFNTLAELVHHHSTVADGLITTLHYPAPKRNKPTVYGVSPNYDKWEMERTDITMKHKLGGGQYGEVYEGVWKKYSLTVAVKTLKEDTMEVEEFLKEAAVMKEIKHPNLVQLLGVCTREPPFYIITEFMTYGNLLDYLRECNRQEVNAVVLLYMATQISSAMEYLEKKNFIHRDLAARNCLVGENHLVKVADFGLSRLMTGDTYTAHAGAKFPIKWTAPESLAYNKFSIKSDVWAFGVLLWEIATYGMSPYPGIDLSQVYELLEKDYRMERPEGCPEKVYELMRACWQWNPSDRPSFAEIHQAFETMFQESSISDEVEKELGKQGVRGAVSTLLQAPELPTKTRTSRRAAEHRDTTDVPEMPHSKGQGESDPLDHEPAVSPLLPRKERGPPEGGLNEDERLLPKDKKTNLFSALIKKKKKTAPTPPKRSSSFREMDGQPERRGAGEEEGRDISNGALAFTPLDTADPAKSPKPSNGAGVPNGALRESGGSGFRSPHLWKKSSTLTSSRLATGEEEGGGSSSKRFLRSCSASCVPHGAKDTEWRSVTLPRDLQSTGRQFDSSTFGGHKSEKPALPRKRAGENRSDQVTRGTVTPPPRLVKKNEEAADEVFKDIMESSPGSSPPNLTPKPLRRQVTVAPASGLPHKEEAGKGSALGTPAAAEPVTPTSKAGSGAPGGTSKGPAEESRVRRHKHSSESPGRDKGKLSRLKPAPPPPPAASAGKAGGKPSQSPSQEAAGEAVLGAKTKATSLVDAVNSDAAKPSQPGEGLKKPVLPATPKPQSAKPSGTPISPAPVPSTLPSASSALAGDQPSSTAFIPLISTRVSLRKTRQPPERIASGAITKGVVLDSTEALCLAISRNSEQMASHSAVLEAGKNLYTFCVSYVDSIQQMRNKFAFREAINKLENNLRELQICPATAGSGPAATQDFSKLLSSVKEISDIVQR
T10 sequence (Q16566 whole entry): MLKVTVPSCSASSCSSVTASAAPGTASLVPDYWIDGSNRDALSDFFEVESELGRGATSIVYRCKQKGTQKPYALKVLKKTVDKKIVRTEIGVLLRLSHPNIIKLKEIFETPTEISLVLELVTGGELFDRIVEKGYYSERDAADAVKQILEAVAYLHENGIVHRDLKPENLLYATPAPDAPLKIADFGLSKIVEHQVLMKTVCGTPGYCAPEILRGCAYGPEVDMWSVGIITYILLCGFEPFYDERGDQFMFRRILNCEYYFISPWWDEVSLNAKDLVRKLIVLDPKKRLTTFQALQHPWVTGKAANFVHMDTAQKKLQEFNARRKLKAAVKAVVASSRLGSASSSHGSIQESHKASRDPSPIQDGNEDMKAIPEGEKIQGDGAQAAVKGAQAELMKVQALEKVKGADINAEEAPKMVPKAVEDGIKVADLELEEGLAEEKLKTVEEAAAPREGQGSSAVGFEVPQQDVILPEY
T1 sequence (P43403 whole entry): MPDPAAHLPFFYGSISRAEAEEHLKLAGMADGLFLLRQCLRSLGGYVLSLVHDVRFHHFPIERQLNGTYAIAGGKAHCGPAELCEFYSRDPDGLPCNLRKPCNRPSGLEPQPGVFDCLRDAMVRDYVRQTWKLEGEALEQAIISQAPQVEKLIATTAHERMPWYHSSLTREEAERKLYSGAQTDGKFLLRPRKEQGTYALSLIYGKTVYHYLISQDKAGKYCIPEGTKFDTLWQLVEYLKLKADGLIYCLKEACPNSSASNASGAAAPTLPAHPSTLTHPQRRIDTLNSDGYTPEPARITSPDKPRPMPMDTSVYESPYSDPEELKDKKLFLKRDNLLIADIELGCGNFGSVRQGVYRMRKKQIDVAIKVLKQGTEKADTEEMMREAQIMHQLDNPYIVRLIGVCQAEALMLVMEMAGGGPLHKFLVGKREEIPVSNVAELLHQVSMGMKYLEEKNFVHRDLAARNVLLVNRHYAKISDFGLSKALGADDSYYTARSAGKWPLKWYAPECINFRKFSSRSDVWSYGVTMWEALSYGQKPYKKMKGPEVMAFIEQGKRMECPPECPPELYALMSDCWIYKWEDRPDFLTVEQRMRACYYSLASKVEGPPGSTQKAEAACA

remaining activity at 10 µM (ZAP-70(h)): 138% | remaining activity at 10 µM (CDK2/cyclinA(h)): 20% | remaining activity at 10 µM (Rsk1(h)): 39% | remaining activity at 10 µM (PKCμ(h)): 10% | remaining activity at 10 µM (Abl(h)): 69% | remaining activity at 10 µM (CHK1(h)): 58% | remaining activity at 10 µM (MST2(h)): 59% | remaining activity at 10 µM (TrkB(h)): 31% | remaining activity at 10 µM (PKCα(h)): 41% | remaining activity at 10 µM (CaMKIV(h)): 37% | remaining activity at 10 µM (TBK1(h)): 54% | remaining activity at 10 µM (PRK2(h)): 31% | effect on NF-κB transcriptional activity [1]: abolished transcriptional activity | IC50 [2]: 5.8 µM | IC50 ([2]; Homo sapiens, U2OS): 8.8 µM
SMILES: N#Cc1c[nH]c2nc(N)nc(-c3ccc(S(N)(=O)=O)cc3)c12 [Compound 48, 4-(2-Amino-5-cyano-7H-pyrrolo[2,3-d]pyrimidin-4-yl)benzenesulfonamide]
% stim ([1]; Il-1β+DMSO = 100%): −40.9 ± 4.6%
